Counter-ions that a name gives are not always drawn.
Assay: in vitro
Conditions: rat, gh3-tre-luc cells

| Structure (SMILES) | CC50 at 24 h (AC50 (uM) modified / 1000) [µM] | other results |
| --- | --- | --- |
| CS(=O)(=O)c1ccc(C(=O)C2C(=O)CCCC2=O)c([N+](=O)[O-])c1 [Mesotrione] | > 90 | – |
| C[C@]12CCC(=O)C[C@@H]1CC[C@@H]1[C@@H]2CC[C@@]2(C)[C@H]1CC[C@]2(C)O [Mestanolone] | – | CC50 at 24 h (AC50 (uM) modified / 1000, Tox21_110001=Tox21_113424, viability, 1 nM T3 present, 24 h): > 50 µM |
| C#C[C@]1(O)CC[C@H]2[C@@H]3CCc4cc(OC)ccc4[C@H]3CC[C@@]21C [Mestranol] | > 90 | – |
| CN1C[C@@H](NS(=O)(=O)N(C)C)C[C@@H]2c3cccc4c3c(cn4C)C[C@H]21 [Mesulergine] | 22.3 | – |
| COCC(=O)N(c1c(C)cccc1C)C(C)C(=O)OC (stereo not drawn) [Metalaxyl] | > 90 | – |
| CNC(=S)S [Metam-sodium hydrate] | – | CC50 at 24 h (AC50 (uM) modified / 1000, Tox21_110001=Tox21_300736, viability, 1 nM T3 present, 24 h): > 90 µM |
| C=N[C@@H](C(=O)N[C@@H]1C(=O)N2[C@@H]1SC(C)(C)[C@@H]2C(=O)O)c1ccccc1 [Metampicillin sodium] | > 50 | – |
| Cc1cccc(C)c1Nc1ncccc1C(=O)O [Metanixin] | > 50 | – |
| C[C@H](N)[C@H](O)c1cccc(O)c1 [Metaraminol bitartrate] | > 20 | – |
| Cc1cc(C)cc(OCC2CNC(=O)O2)c1 (stereo not drawn) [Metaxalone] | > 50 | – |
| O=C(NNCNNC(=O)c1ccncc1)c1ccncc1 [Metazide] | > 50 | – |
| CC1(C)CCC(Cc2ccc(Cl)cc2)C1(O)Cn1cncn1 (stereo not drawn) [Metconazole] | 82.6 | – |
| CC1CN1P(=O)(N1CC1C)N1CC1C (stereo not drawn) [Metepa] | – | CC50 at 24 h (AC50 (uM) modified / 1000, Tox21_110001=Tox21_301807, viability, 1 nM T3 present, 24 h): > 90 µM |
| CN1C[C@H](CNC(=O)OCc2ccccc2)C[C@@H]2c3cccc4c3c(cn4C)C[C@H]21 [Metergoline] | 8.07 | – |
| CNC(=O)N(C)c1nc2ccccc2s1 [Methabenzthiazuron] | > 90 | – |
| CC(=O)OC(C)C[N+](C)(C)C (stereo not drawn) [Methacholine chloride] | > 20 | – |
| C=C(C)C(N)=O [Methacrylamide] | > 90 | – |
| C=C(C)C(=O)O [Methacrylic acid] | > 90 | – |
| C=C(C)C#N [Methacrylonitrile] | – | CC50 at 24 h (AC50 (uM) modified / 1000, Tox21_110001=Tox21_201354, viability, 1 nM T3 present, 24 h): > 100 µM; CC50 at 24 h (AC50 (uM) modified / 1000, Tox21_110001=Tox21_303172, viability, 1 nM T3 present, 24 h): > 90 µM |
| C=C1c2cccc(O)c2C(O)=C2C(=O)[C@]3(O)C(O)=C(C(N)=O)C(=O)[C@@H](N(C)C)[C@@H]3[C@@H](O)[C@H]12 [Methacycline hydrochloride] | > 20 | – |
| CCC(=O)C(CC(C)N(C)C)(c1ccccc1)c1ccccc1 (stereo not drawn) [Methadone hydrochloride] | 28.5 | – |

| Structure (SMILES) | CC50 at 24 h (AC50 (uM) modified / 1000) [µM] | other results |
| --- | --- | --- |
| COP(N)(=O)SC (stereo not drawn) [Methamidophos] | – | CC50 at 24 h (AC50 (uM) modified / 1000, Tox21_110001=Tox21_202250, viability, 1 nM T3 present, 24 h): > 90 µM |
| C[C@]12C=CC(=O)C=C1CC[C@@H]1[C@@H]2CC[C@@]2(C)[C@H]1CC[C@]2(C)O [Methandrostenolone] | – | CC50 at 24 h (AC50 (uM) modified / 1000, Tox21_110001=Tox21_111647, viability, 1 nM T3 present, 24 h): > 50 µM |
| CS(=O)(=O)O [Methanesulfonic acid] | > 90 | – |
| CS(=O)(=O)Cl [Methanesulfonyl chloride] | > 90 | – |
| CO [Methanol] | > 90 | – |
| CC[N+](C)(CC)CCOC(=O)C1c2ccccc2Oc2ccccc21 [Methantheline bromide] | > 50 | – |
| Cc1ccccc1-n1c(C)nc2ccccc2c1=O [Methaqualone] | > 50 | – |
| CCC1(CC)C(=O)NC(=O)N(C)C1=O [Metharbital] | – | CC50 at 24 h (AC50 (uM) modified / 1000, Tox21_110001=Tox21_112752, viability, 1 nM T3 present, 24 h): > 50 µM |
| CC(=O)/N=c1/sc(S(N)(=O)=O)nn1C [Methazolamide] | > 20 | – |
| CN1CCC(CN2c3ccccc3Sc3ccccc32)C1 (stereo not drawn) [Methdilazine hydrochloride] | 8.75 | – |
| C1N2CN3CN1CN(C2)C3 [Methenamine] | > 50 | – |
| CCCCCCC(=O)O[C@H]1CC[C@H]2[C@@H]3CC[C@H]4CC(=O)C=C(C)[C@]4(C)[C@H]3CC[C@]12C [Methenolone enanthate] | – | CC50 at 24 h (AC50 (uM) modified / 1000, Tox21_110001=Tox21_112600, viability, 1 nM T3 present, 24 h): > 50 µM |
| CC[C@@H](CO)NC(=O)[C@@H]1C=C2c3cccc4[nH]cc(c34)C[C@H]2N(C)C1 [Methergine] | – | CC50 at 24 h (AC50 (uM) modified / 1000, Tox21_110001=Tox21_110809, viability, 1 nM T3 present, 24 h): > 50 µM |
| Cc1oc(C)c(C(=O)Nc2ccccc2)c1C [Methfuroxam] | > 90 | – |
| COc1cccc(OC)c1C(=O)N[C@@H]1C(=O)N2[C@@H]1SC(C)(C)[C@@H]2C(=O)O [Methicillin sodium hydrate] | > 50 | – |
| COc1nn(CSP(=S)(OC)OC)c(=O)s1 [Methidathion] | > 90 | – |
| CSCC[C@H](N)C(=O)O [Methionine] | > 50 | – |
| CN1C(=O)/C(=N\NC(N)=S)c2ccccc21 [Methisazone] | 34.2 | – |
| Cc1cccc(NC(=S)N(C)C)c1 [Methiuron] | > 90 | – |
| COc1ccccc1OCC(O)COC(N)=O (stereo not drawn) [Methocarbamol] | > 20 | – |
| CNC(=O)ON=C(C)SC [Methomyl] | > 90 | – |

| Structure (SMILES) | CC50 at 24 h (AC50 (uM) modified / 1000) [µM] | other results |
| --- | --- | --- |
| COC(C)(C)CCCC(C)C/C=C/C(C)=C/C(=O)OC(C)C (stereo not drawn) [Methoprene] | > 90 | – |
| COc1ccc2c(c1)N(C[C@H](C)CN(C)C)c1ccccc1S2 [Methotrimeprazine maleate] | 6.79 | – |
| COCC(=O)O [Methoxyacetic acid] | > 90 | – |
| COc1ccc(C(c2ccc(OC)cc2)C(Cl)(Cl)Cl)cc1 [Methoxychlor] | – | CC50 at 24 h (AC50 (uM) modified / 1000, Tox21_110001=Tox21_400075, viability, 1 nM T3 present, 24 h): 76.1 µM |
| COc1cccc(C(=O)NN(C(=O)c2cc(C)cc(C)c2)C(C)(C)C)c1C [Methoxyfenozide] | > 90 | – |
| COC(F)(F)C(Cl)Cl [Methoxyflurane] | > 50 | – |
| CNC(C)Cc1ccccc1OC (stereo not drawn) [Methoxyphenamine] | – | CC50 at 24 h (AC50 (uM) modified / 1000, Tox21_110001=Tox21_113045, viability, 1 nM T3 present, 24 h): > 50 µM |
| COC(C(=O)O)c1ccccc1 (stereo not drawn) [Methoxyphenylacetic acid] | > 90 | – |
| CN1C(=O)CC(C)(c2ccccc2)C1=O (stereo not drawn) [Methsuximide] | > 50 | – |
| CN1C(CCl)Nc2cc(Cl)c(S(N)(=O)=O)cc2S1(=O)=O (stereo not drawn) [Methyclothiazide] | > 50 | – |
| COC(=O)Cc1cccc2ccccc12 [Methyl 1-naphthaleneacetate] | > 90 | – |
| COC(=O)C(Br)CBr (stereo not drawn) [Methyl 2,3-dibromopropionate] | > 90 | – |
| COC(=O)c1c(C)cc(O)c(C)c1O [Methyl 2,4-dihydroxy-3,6-dimethylbenzoate] | > 90 | – |
| COC(=O)c1ccccc1N [Methyl 2-aminobenzoate] | – | CC50 at 24 h (AC50 (uM) modified / 1000, Tox21_110001=Tox21_201657, viability, 1 nM T3 present, 24 h): > 90 µM |
| COC(=O)c1ccccc1Cl [Methyl 2-chlorobenzoate] | > 90 | – |
| COC(=O)C(C)O (stereo not drawn) [Methyl 2-hydroxypropanoate] | > 90 | – |
| COC(=O)c1ccccc1OC [Methyl 2-methoxybenzoate] | > 90 | – |
| CSSc1ccoc1C [Methyl 2-methyl-3-furyl disulfide] | > 80 | – |
| COC(=O)c1ccccc1C [Methyl 2-methylbenzoate] | > 90 | – |
| CCCCCCC#CC(=O)OC [Methyl 2-nonynoate] | > 90 | – |
| CCCCCC#CC(=O)OC [Methyl 2-octynoate] | > 90 | – |

| Structure (SMILES) | CC50 at 24 h (AC50 (uM) modified / 1000) [µM] | other results |
| --- | --- | --- |
| C=CC(C)(C)CC(=O)OC [Methyl 3,3-dimethylpent-4-enoate] | > 90 | – |
| COC(=O)c1cc(Cl)cc(Cl)c1 [Methyl 3,5-dichlorobenzoate] | > 90 | – |
| COC(=O)c1cccc(Cl)c1 [Methyl 3-chlorobenzoate] | > 90 | – |
| CCCCCC=CCC(=O)OC [Methyl 3-nonenoate] | > 90 | – |
| COC(=O)c1sccc1S(N)(=O)=O [Methyl 3-sulfamoylthiophene-2-carboxylate] | > 90 | – |
| COC(=O)c1ccc(CBr)cc1 [Methyl 4-(bromomethyl)benzoate] | > 90 | – |
| COC(=O)c1ccc(C=O)cc1 [Methyl 4-formylbenzoate] | > 90 | – |
| COC(=O)c1ccc(OC)cc1 [Methyl 4-methoxybenzoate] | > 90 | – |
| COC(=O)c1ccc(C)cc1 [Methyl 4-methylbenzoate] | > 90 | – |
| COC(=O)c1cc(Cl)ccc1[N+](=O)[O-] [Methyl 5-chloro-2-nitrobenzoate] | > 90 | – |
| C=CCCCCCCCCC(=O)OC [Methyl 10-undecenoate] | > 50 | – |
| CCCCCCC(O)CCCCCCCCCCC(=O)OC (stereo not drawn) [Methyl 12-hydroxyoctadecanoate] | > 90 | – |
| CCCCCC/C=C/C(=O)OC [Methyl (2E)-2-nonenoate] | > 90 | – |
| CCCCCCCC/C=C\CCCCCCCC(=O)OC [Methyl (9Z)-octadec-9-enoate] | > 90 | – |
| COC(=O)/C=C/c1ccccc1 [Methyl (E)-cinnamate] | > 90 | – |
| COC(=O)[C@@H](N)Cc1ccc(O)c(O)c1 [Methyl L-DOPA hydrochloride] | 19.9 | – |
| COC(=O)[C@@H](N)CS [Methyl L-cysteinate hydrochloride] | > 50 | – |
| COC(=O)NCCC[Si](OC)(OC)OC [Methyl [3-(trimethoxysilyl)propyl]carbamate] | > 90 | – |
| COC(=O)[C@]1(C)CCC[C@@]2(C)[C@H]1CC=C1C=C(C(C)C)CC[C@@H]12 [Methyl abietate] | 42.6 | – |
| COC(C)=O [Methyl acetate] | > 90 | – |
